Experimental data reported in patent US6593324B2, “Dervatives of quinoline as alpha-2 antagonists” (Orion Corporation, priority 2000, dated 2003).

Assays:
male NMRI mice = assay: Antagonism of dexmedetomidine-induced locomotor inhibition; format: in vivo; details: various doses 20 min before dexmedetomidine 50 nmol/kg s.c.; activity measured 20 min after; atipamezole effective at 0.3 and 1.0 μmol/kg s.c. (p<0.01); FIG. 1
Description: Dexmedetomidine and atipamezole are very potent and specific alpha-2 adrenoceptor agonists and antagonists, respectively, which lack alpha-2 subtype selectivity (H. Scheinin et al., European Journal of Pharmacology, Molecular Section, vol.151(1), 1988, p.35-42). The alpha-2 agonist-induced sedation is known to be an alpha-2A-mediated phenomenon that can be antagonised by alpha-2 antagonists (J. Sallinen et al., Mol. Pharmacol. Vol.51, 1997, p.36-46, and A. Haapalinna et al., Naunyn-Schimiedeberg's Arch. Pharmacol. Vol.356, 1997, p.570-582). The sedative effect of alpha-2 agonists in mice is measured by the inhibition on locomotor activity. Therefore, we compared the ability of Compound I and atipamezole to antagonise the dexmedetomidine-induced locomotor inhibition to evaluate the in vivo alpha-2A adrenoceptor antagonism (and alpha-2C selectivity) of these compounds.
Spontaneous locomotor activity of a total of 76 male NMRI mice (B&K, Sweden) was measured by placing individual animals into a polypropylene animal cage (38×22×15 cm). The cages were surrounded with an infrared photobeam frame system designed for activity measurements (Photobeam Activity System PAS, Cage Rack, San Diego Instruments, San Diego, Calif., USA). […] Spontaneous locomotor activity was measured 20 min after dexmedetomidine injection.

Balb/c mice = assay: Mouse forced swimming test; format: in vivo; details: 0.3 μmol/kg 40 min before test; activity between 2 and 6 min; Compound 1 p=0.013, atipamezole p=0.52; FIG. 2
Description: This can be observed for example employing the forced swimming test, in which a rat or mouse is put into a water-filled cylinder. After a vigorous period of attempts to escape animals adopt an immobile floating posture; the extent of the immobile period is monitored and can be reduced by antidepressants and stress-protective agents. Transgenic mice that lack functional alpha-2C adrenoceptor tolerated swim-stress better than their similarly treated wild-type controls (J. Sallinen et al., Mol. Psychiatry, vol.4, 1999, p.443-452). Therefore, an increase in the forced swimming activity can be used as a measure of in vivo alpha-2C selective antagonism of a compound.
The forced swim test was conducted as originally described employing the stress sensitive (J. Crawley and L. Davis, Brain Research Bulletin, vol.8, 1982, p.609-612, and U.S. Pat. No. 5,902,807) Balb/c mouse strain (B&K, Sweden). The mice were administered either with vehicle (0.1% DMSO, 5 ml/kg subcutaneously), Compound 10.3 μmol/kg, or atipamezole 0.3 μmol/kg 40 min before putting the mice into a vessel (10 cm diameter, 18.5 cm height, filled with 25° C. water up to 8 cm height). The cumulative activity of each mouse was measured between 2 and 6 min after introduction to the vessel. Only vigorous attempts to escape (climbing) were registered. The mice (a total of 96) were tested only once.

test animals = details: literature report; cited from earlier work
brain = details: employed doses of atipamezole; literature report; cited from earlier work

| SMILES | antagonism of dexmedetomidine-induced sedation (locomotor inhibition) (male NMRI mice) | stress-protective effect: forced swimming activity (climbing) vs vehicle (Balb/c mice) | stress-protective effect (test animals) | neurochemical effect: noradrenaline release in brain (brain) |
| --- | --- | --- | --- | --- |
| CCC1(c2cnc[nH]2)Cc2ccccc2C1 [atipamezole] | inhibited dexmedetomidine-induced sedation | did not have any clear effect on the activity | did not have a clear stress-protective effect | stimulate noradrenaline release in brain |
| CN1CCN(c2ccc(Nc3c4ccccc4nc4ccccc34)cc2)CC1 [Compound 1, Acridin-9-yl-[4-(4-methylpiperazin-1-yl)-phenyl]amine] | did not antagonise the alpha-2-agonist-induced sedation at all | tolerated clearly better stress-induced propagation of behavioural despair |  |  |
